Measured values reported in a melting point compilation (Tetko et al.; mined from patent text by program, amines drawn as free bases though some values may be those of a salt).

Row | SMILES | melting point
1 | CC(C)(C)C(=O)Nc1c(F)cc(F)cc1Oc1ccc(C(C)(C)C(N)=O)cc1 | 169 to 170 °C
2 | COC(=O)N(C)N=C(c1ccc(Cl)cc1)C(C)(C)C | 58 to 60 °C
3 | CCCCCCCCCCCCCCCCCC(=O)OCCN1C(C)(C)CCCC1(C)C | 30 °C
4 | CC(=NC(=Nc1ccccc1)N1CCOCC1)NCCO | 132 to 134 °C
5 | Fc1cccc(F)c1-c1ncc(NCc2ccc(Cl)cc2)nn1 | 200 to 205 °C
6 | O=C(O)c1ccccc1C=Cc1ccc(-c2cc3ccc4ccccc4c3o2)cc1 | 210 to 211 °C
7 | CN1C(=O)CC[C@]2(C)c3ccc(-c4ccc(Cl)c(C(F)(F)F)c4)cc3CC[C@@H]12 | 134 to 137 °C
8 | COCOc1cc(COc2nn(Cc3ccccc3)cc2C=O)ccc1OCc1nc(-c2ccco2)oc1C | 141 to 142 °C
9 | O=C1N(Cc2ncccn2)c2ccccc2C12COc1cc3c(cc12)CCO3 (stereo unspecified) | 203 to 205 °C
10 | CN(CCOc1ccc(CC2SC(=O)NC2=O)cc1)c1ncccn1 (stereo unspecified) | 150 to 151 °C
11 | CCOC1=CC2=CCC3C4CC(C)(C)C(=O)C4(C)CCC3C2(C)CC1 (stereo unspecified) | 133 to 137 °C
12 | CCc1cccc(C)c1CNc1nc(Br)cnc1N | 155 °C
13 | CN1Cc2cncn2-c2ccc(F)c(Cl)c2C1=O | 234 to 235 °C
14 | CCS(=O)(=O)N(c1cc([N+](=O)[O-])c(F)cc1Br)S(=O)(=O)CC | 144 to 146 °C
15 | COc1cc(CC#N)c(CCN)cc1OC | 78 °C
16 | Cc1cc(C)cc(S(=O)(=O)n2c(CCCC(=O)O)cc3cc(Cl)ccc32)c1 | 204 to 206 °C
17 | NC(=O)N1CCSC1c1ccccc1OCCN1CCN(c2cccc(F)c2)CC1 (stereo unspecified) | 142 to 143 °C
18 | Cc1cc(C2=NNC(=O)Cc3cc4c(cc32)OCO4)ccc1[N+](=O)[O-] | 275 to 277 °C
19 | CCOC1(OCC)C[C@@H](C(=O)O)[C@@H]1C(=O)O (relative stereo) | 118 to 120 °C
20 | O=C1Nc2ccccc2N2C(=O)OCC12 (stereo unspecified) | 230 to 231 °C
21 | CCCCNC(=O)Nc1ccccc1NC(=O)NCCCC | 163 to 164 °C

Row | SMILES | melting point
22 | CC1(CCOC2CCCCO2)C(=O)NNC1=O (stereo unspecified) | 179 to 180 °C
23 | O=S1(=O)N(CCBr)c2ccccc2N1c1ccc(Cl)cc1 | 86 to 89 °C
24 | Nc1ccc2c3c(cccc13)CC2 | 178 to 179 °C
25 | CCN1C(=O)C(NC(=O)C(F)(F)F)CCc2c1ccc(Nc1ncc(Cl)c(Nc3ccccc3S(=O)(=O)C(C)C)n1)c2OC (stereo unspecified) | 245 to 247 °C
26 | CC(C)c1ccc(C(=O)N2CCCCC2)c(NS(=O)(=O)c2cccc3nsnc23)c1 | 125 to 127 °C
27 | CCOC(=O)C=Cc1cc(Cl)ccc1Cl | 34 to 36 °C
28 | COc1cc(S(C)(=O)=O)ccc1-c1nc(C)c(-c2cccnc2)[nH]1 | 115 to 118 °C
29 | CCCN1Cc2ccccc2C(=O)c2cc(CC(=O)O)ccc21 | 126 °C
30 | O=c1oc2ccc(-c3ccc(F)cc3F)cc2c(=O)n1-c1ccccc1C(F)(F)F | 200 to 201 °C
31 | CCCCCCCCNC(=O)Nc1sc(C(=O)OC(C)CCCCCC)c(C)c1C(=O)OC(C)(C)C (stereo unspecified) | 92 to 94 °C
32 | CC(=O)Nc1ccc(C(=O)Nc2ccc(C(=O)N3CCCCc4ccccc43)cc2)c(Cl)c1 | 214 to 243 °C
33 | COC(=O)[C@@H]1[C@H](C(C)C)N1S(=O)(=O)c1ccc(C)cc1 (stereo partly specified) | 52 to 54 °C
34 | CCCOc1ccc(CCCOc2nn(C)cc2CC(=O)O)c(Oc2ncc(C(F)(F)F)cc2Cl)c1 | 95 to 96 °C
35 | O=C1Nc2ccccc2Oc2sc3ccccc3c21 | 240 to 242 °C
36 | COc1ccc(CN(CCCC#N)Cc2ccc(OC)cc2)cc1 | 56 to 58 °C
37 | CC(/C=C/c1ccsc1-c1ccc2c(c1)C(C)(C)CCC2(C)C)=C\C(=O)O | 195 to 197 °C
38 | O=C(O)[C@H](Cc1ccc(C(F)(F)F)o1)[C@@H](O)c1ccc(F)cc1 (racemic) | 86 to 87 °C
39 | Cc1ccc2c(c1)SC(C(F)(F)F)C(C(=O)O)=C2 (stereo unspecified) | 187 to 192 °C
40 | CCCC1=C(C#N)C(c2cccc(Cl)c2Cl)c2c[nH]nc2N1 (stereo unspecified) | 242 °C
41 | Cc1ccc2nc(-c3ccccc3)oc2c1 | 93 °C
42 | Cc1cccc(C(C)C)c1NC(=O)Nc1c(C)nc(-c2ccccc2)nc1-c1ccccc1Cl | 266 to 267 °C

Row | SMILES | melting point
43 | CCOc1ccccc1OCCNC(C)Cc1ccc(OC)c(S(N)(=O)=O)c1 (stereo unspecified) | 118 to 124 °C
44 | Cn1c2ccccc2c(=O)c2c([N+](=O)[O-])cccc21 | 308 to 309 °C
45 | COc1cccc(Cc2nnc(NCCSCc3nccs3)[nH]c2=O)c1 | 128 to 129 °C
46 | COC(=O)c1cc2c(cc1O)CCCC2 | 41 to 42 °C
47 | COC(=O)c1ccc(CC(=O)Nc2cccc(/C=C/c3nc(C4CCC4)cs3)c2)cc1 | 163 to 164 °C
48 | Cn1ncc2c1-c1c(S(C)(=O)=O)sc(S(N)(=O)=O)c1CC2 | 228 to 229 °C
49 | COc1ccc(C(=O)Nc2ccc3cccnc3n2)cc1 | 150 °C
50 | CCCn1cc2c(C3C(=O)Nc4ccc(Br)cc43)nc(Cl)nc2n1 (stereo unspecified) | > 300 °C
51 | O=C1CCC(c2ccc3[nH]c(-c4ccc(-n5ccnc5)cc4)cc3c2)=NN1 | 295 to 298 °C
52 | CC(C)(C)OC(=O)c1ccc(NC2CCc3cc(NC(=O)COCc4ccccc4)c(C#N)cc32)cc1 (stereo unspecified) | 194 to 195 °C
53 | CCOC(=O)c1ncc2[nH]c3cccc(CO)c3c2c1COC | 139 to 140 °C
54 | CCCc1nn(C)c(C(N)=O)c1N | 96 to 98 °C
55 | CCCN(CCN1CCN(C(=O)c2cc3ccccc3[nH]2)CC1)C1CCc2c(O)cccc2C1 (stereo unspecified) | 169 to 170 °C
56 | CC(=O)c1cc(C)c(NC(=O)c2cc(C(F)(F)F)nn2-c2ncccc2Cl)c(C(=O)NC(C)C)c1 | 135 to 137 °C
57 | O=C(O)COc1c2c3c(ccnc3c3ccccc13)CCC2 | 228 °C
58 | N#Cc1ccc(Nc2nc(Cc3c(Cl)cccc3Cl)cc(NCCN3CCCC3)n2)cc1 | 80 to 85 °C
59 | CCC(CC)(Cc1ccc(Cl)cc1)C(O)c1cccnc1 (stereo unspecified) | 128 to 129 °C
60 | CCCC1=C(C#N)C(c2ccccc2Cl)c2c(n[nH]c2C(C)C)N1 (stereo unspecified) | > 270 °C
61 | C#Cc1ccc(CCNC(=O)c2cc(Cl)ccc2OC)cc1S(=O)(=O)NC(=S)NC | 224 to 225 °C
62 | CC(C)(CSc1ccc(Cl)cc1)C(O)C(Oc1ccc(Cl)cc1)n1cncn1 (stereo unspecified) | 132 °C

Continued, values first:

Row | melting point | SMILES
63 | 85 to 86 °C | O=Cc1ccc2c(c1)CCC2
64 | 200 °C | CS(=O)(=O)c1cc(C(=O)O)c(Cl)cc1Oc1ccccc1
65 | 91 to 92 °C | COC(=O)c1ccnc(Cl)c1N
66 | 260 to 262 °C | Cc1c(C(=O)O)sc2ccc(CO)cc12
67 | 239 to 241 °C | O=c1c2cc(F)c(N3CCCC3)cc2n(-c2cccc(F)c2)c(=O)n1O
68 | 126 to 127 °C | CSc1ccc(Cl)c(C(=O)NCC23CC4CC(CC(C4)C2)C3)c1
69 | 200 to 201 °C | COc1cc(C#N)ccc1Cc1cn(C)c2ccc([N+](=O)[O-])cc12
70 | 163 °C | CCOC(=O)c1c(O)c2cc(F)cnc2n(Cc2ccc(OC)cc2)c1=O
71 | 252 °C | CCOC(=O)N1CCc2nc3ccccc3c(O)c2CC1
72 | 234 to 236 °C | CC1(C)NC(=O)CSC1=NO
73 | 206 to 208 °C | COc1ccc2[nH]c(C(=O)O)c(-c3ccccc3F)c2c1
74 | 180 °C | CC(C)n1cc(-c2nc(C#N)c(N)nc2-c2ccc(F)c(F)c2)ccc1=O
75 | 88 to 89 °C | CSc1ccccc1C=NO
76 | 227 °C | Cc1n[nH]c(C)c1-c1cncc(OC2SCC(O)C(O)C2O)c1 (stereo unspecified)
77 | 145 to 150 °C | Cc1nc2c(C(=O)NC(C)(C(N)=O)C(C)C)c(C(=O)O)ccc2n1Cc1ccccc1 (stereo unspecified)
78 | 150 to 158 °C | CNC(=O)C(Cc1ccc(OC)cc1)NC(=O)C(C)(CC(C)C)c1ccc(OC)cc1SCc1ccc(OC)cc1 (stereo unspecified)
79 | 91 to 92 °C | CCCCSc1cc(SCCCC)c2ccc3c(SCCCC)cc(SCCCC)c4ccc1c2c43
80 | 76 to 77 °C | CCOC(=O)c1c(C(F)(F)F)nc(C(F)(F)F)c(C(=O)OCC)c1Cl
81 | 104 to 106 °C | Cc1ccccc1-c1cc2ncccc2c(=O)n1C
82 | 217 to 218 °C | CCn1ncc2c(NN=C(C)C)c(C(N)=O)cnc21

Row | melting point | SMILES
83 | 112 to 115 °C | CC1CCCC(C)N1Cc1ccc(N)cc1 (stereo unspecified)
84 | 196 to 197 °C | CC(C)(C)OC(=O)/C=C/c1ccnc(-c2nc(=O)c3ccccc3s2)c1
85 | 78 to 79 °C | O=C(O)CCC(O)c1ccc(-c2ccc(F)cc2Cl)cc1 (stereo unspecified)
86 | 131 to 133 °C | COC(=O)c1cocc1-n1c(OC)nn(C)c1=O
87 | 158 to 160 °C | COc1cc(C#CC(=O)c2ccccc2)cc(OC)c1OC
88 | 155 to 157 °C | CNC(=S)NN=C(CCCOC(=O)Nc1ccccc1)c1ccccc1
89 | 280 °C | O=c1[nH]c2c(cnn2-c2ccccc2)c2ccccc12
90 | 210 to 211 °C | COc1ccc(C[C@@H](NC(=O)c2ccc(F)c3ccccc23)[C@@H](O)c2ccc(F)cc2)cc1 (racemic)
91 | 158 to 160 °C | CNc1cc(Br)nc(S(=O)(=O)c2ccc(N)cc2)c1
92 | 230 to 237 °C | Cc1[nH]c(C(=O)NCCN2CCCCC2)c(C)c1-c1nc2ccc(C(=O)c3ccccc3)cc2[nH]1
93 | 172 to 175 °C | CN(C)Cc1coc(-c2cccc(C3=Nc4ccc(-n5cccc5)cc4NC(=O)C3)c2)n1
94 | 91 to 97 °C | CN(C)C(=O)n1cc(C(=O)C2CSC(c3cccnc3)N2)c2ccc(-c3ccccc3)cc21 (stereo unspecified)
95 | 194 to 196 °C | Cc1cc(N2C=C3C(c4ccccc4)=C(OCc4ncn(C)n4)NN3C=N2)no1
96 | 60 to 61 °C | Clc1ccc([Si](Cl)(Cl)Cl)cc1
97 | 117 to 118 °C | COc1nc(C(F)F)cnc1NS(=O)(=O)c1cccc(Cl)c1Cl
98 | 210 °C | CC(=O)N(C(C)=O)n1c(=O)[nH]c2ccccc2c1=O
99 | 159 to 161 °C | O=C(Nc1n[nH]c(=S)s1)NC(Cc1ccccc1)C(=O)NCc1ccccn1 (stereo unspecified)
100 | 85 to 90 °C | Cc1noc(NS(=O)(=O)c2ccccc2-c2ccc(-c3ccccn3)cc2)c1C
101 | 198 °C | Cn1ncnc1COc1nn2c(-c3cccc(F)c3)nncc2c1-c1ccccc1
